Experimental data: ChEMBL document CHEMBL1221370, “Steroidal saponins from fresh stems of Dracaena angustifolia” (J Nat Prod, 2010)
In brackets after ≈: the same amount, converted by molar mass. Activity calls are given as the source filed them. The calls are words filed in the database; no cut-off is given here.

Legend:
Format in all cases: functional, organism-based
Cryptococcus neoformans = experiment: Antifungal activity against Cryptococcus neoformans ATCC 90113 by broth dilution method
Candida albicans = experiment: Antifungal activity against Candida albicans ATCC 90028 by broth dilution method
Nakaseomyces glabratus = experiment: Antifungal activity against Candida glabrata ATCC 90030 by broth dilution method
Pichia kudriavzevii = experiment: Antifungal activity against Candida krusei ATCC 6258 by broth dilution method
Aspergillus fumigatus = experiment: Antifungal activity against Aspergillus fumigatus ATCC 90906 by broth dilution method

IC50 (Cryptococcus neoformans) [µg/mL] | SMILES | Activity (Cryptococcus neoformans) | Activity (Candida albicans) | Activity (Nakaseomyces glabratus) | Activity (Pichia kudriavzevii) | Activity (Aspergillus fumigatus)
– | C=C1CO[C@]2(C[C@H]1O)OC1C[C@H]3[C@@H]4CC=C5C[C@@H](O)C[C@@H](O[C@@H]6OC[C@H](OS(=O)(=O)O)[C@H](O)[C@H]6O[C@@H]6O[C@@H](C)[C@H](O)[C@@H](O)[C@H]6O)[C@]5(C)[C@H]4CC[C@]3(C)[C@H]1[C@@H]2C (stereo partly specified) | inactive | inactive | inactive | inactive | inactive
– | C=C1CC[C@@]2(OC1)OC1C[C@H]3[C@@H]4CC=C5C[C@@H](O)C[C@@H](O[C@@H]6OC[C@H](OS(=O)(=O)O)[C@H](O)[C@H]6O[C@@H]6O[C@@H](C)[C@H](O)[C@@H](O)[C@H]6O)[C@]5(C)[C@H]4CC[C@]3(C)[C@H]1[C@@H]2C (stereo partly specified) | inactive | inactive | inactive | inactive | inactive
20 (≈ 28.2 µM) | C[C@H]1CC[C@@]2(OC1)OC1C[C@H]3[C@@H]4CC=C5C[C@@H](O)C[C@@H](O[C@@H]6OC[C@H](O)[C@H](O)[C@H]6O[C@@H]6O[C@@H](C)[C@H](O)[C@@H](O)[C@H]6O)[C@]5(C)[C@H]4CC[C@]3(C)[C@H]1[C@@H]2C (stereo partly specified) | – | inactive | inactive | inactive | inactive
9.5 (≈ 13.7 µM) | C[C@H]1CC[C@@]2(OC1)OC1C[C@H]3[C@@H]4CC=C5C[C@@H](O)C[C@@H](O[C@@H]6OC[C@H](O)[C@H](O[C@@H]7OC[C@@H](O)[C@H](O)[C@H]7O)[C@H]6O)[C@]5(C)[C@H]4CC[C@]3(C)[C@H]1[C@@H]2C (stereo partly specified) [ANGUDRACANOSIDE F] | – | inactive | inactive | inactive | inactive
– | C=C1CC[C@@]2(OC1)OC1C[C@H]3[C@@H]4[C@@H](O)C=C5C[C@@H](O)C[C@@H](O[C@@H]6OC[C@H](OS(=O)(=O)O)[C@H](O)[C@H]6O[C@@H]6O[C@@H](C)[C@H](O)[C@@H](O)[C@H]6O)[C@]5(C)[C@H]4CC[C@]3(C)[C@H]1[C@@H]2C (stereo partly specified) | inactive | inactive | inactive | inactive | inactive
– | C[C@H]1CC[C@@]2(OC1)OC1C[C@H]3[C@@H]4C(=O)C=C5C[C@@H](O)C[C@@H](O[C@@H]6OC[C@H](OS(=O)(=O)O)[C@H](O)[C@H]6O[C@@H]6O[C@@H](C)[C@H](O)[C@@H](O)[C@H]6O)[C@]5(C)[C@H]4CC[C@]3(C)[C@H]1[C@@H]2C (stereo partly specified) | inactive | inactive | inactive | inactive | inactive
2.5 (≈ 2.71 µM) | C[C@@H]1[C@H](O)[C@@H](C)/C=C/C=C/C=C/C=C/C=C/C=C/C=C/[C@H](O[C@@H]2O[C@H](C)[C@@H](O)[C@H](N)[C@@H]2O)C[C@@H]2O[C@](O)(C[C@@H](O)C[C@@H](O)[C@H](O)CC[C@@H](O)C[C@@H](O)CC(=O)O[C@H]1C)C[C@H](O)[C@H]2C(=O)O [AMPHOTERICIN B] | – | – | – | – | –
